Data from the supplement of paper PMC11061612.

Columns and labels:
[1] = tested on: CAL-148 (Breast Carcinoma); experiment: Bliss excess, mean over the matrix (fraction); higher = more synergy
In short: (§1)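 Cell lines grown in DMEM/F12 or RPMI with 10% FBS were plated in 1536-well plates and held 24 hours at 37°C, 5% CO2 before 72 hours of exposure to two-drug dose matrices, with DMSO typically at 0.2%. CellTiter-Glo 2.0 luminescence gave viability, which was converted to inhibition. Vehicle wells were set to 0 and blank wells to 1. Combination Emax is the second-highest inhibition in the matrix, and Bliss excess is the observed combination effect minus the expected EA + EB − EA·EB, where EA and EB are the single-agent effects.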

[2] = tested on: DEL (T-Cell Non-Hodgkin's Lymphoma); experiment: as above
In short: as §1

[3] = tested on: EC-GI-10 (Esophageal Squamous Cell Carcinoma); experiment: as above
In short: as §1

[4] = tested on: HO-1-N-1 (Oral Cavity Carcinoma); experiment: as above
In short: as §1

[5] = tested on: KYSE-520 (Esophageal Squamous Cell Carcinoma); experiment: as above
In short: as §1

[6] = tested on: TE-9 (Esophageal Squamous Cell Carcinoma); experiment: as above
In short: as §1

[7] = tested on: B-CPAP (Thyroid Gland Carcinoma); experiment: combination Emax (second highest fraction inhibited in the dose matrix, 72 h); higher = more inhibition; extreme values may be limits of the assay
In short: as §1

[8] = tested on: CaR-1 (Colorectal Carcinoma); experiment: as above
In short: as §1

[9] = tested on: Daoy (Other Solid Carcinomas); experiment: as above
In short: as §1

[10] = tested on: HCC-78 (Lung Adenocarcinoma); experiment: as above
In short: as §1

[11] = tested on: HO-1-N-1 (Oral Cavity Carcinoma); experiment: as above
In short: as §1

KELLY (Neuroblastoma) = experiment: as above
In short: as §1

[12] = tested on: KP-1N (Pancreatic Carcinoma); experiment: as above
In short: as §1

[13] = tested on: KURAMOCHI (Ovarian Carcinoma); experiment: as above
In short: as §1

[14] = tested on: LNCaP-Clone-FGC (Prostate Carcinoma); experiment: as above
In short: as §1

[15] = tested on: MDA-MB-361 (Breast Carcinoma); experiment: as above
In short: as §1

[16] = tested on: NCI-H2085 (Non-Small Cell Lung Carcinoma); experiment: as above
In short: as §1

[17] = tested on: NCI-H82 (Small Cell Lung Carcinoma); experiment: as above
In short: as §1

[18] = tested on: RO82-W-1 (Thyroid Gland Carcinoma); experiment: as above
In short: as §1

[19] = tested on: SK-ES-1 (Ewing's Sarcoma); experiment: as above
In short: as §1
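For Bliss excess, mean over the matrix in this document: after 72 h of two-drug dosing.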

Compound	Bliss excess [1]	Bliss excess [2]	Bliss excess [3]	Bliss excess [4]	Bliss excess [5]	Bliss excess [6]	combination Emax [7]	combination Emax [8]	combination Emax [9]	combination Emax [10]	combination Emax [11]	combination Emax (KELLY (Neuroblastoma))	combination Emax [12]	combination Emax [13]	combination Emax [14]	combination Emax [15]	combination Emax [16]	combination Emax [17]	combination Emax [18]	combination Emax [19]
CCN(CCO)CCCOc1ccc2c(Nc3cc(CC(=O)Nc4cccc(F)c4)[nH]n3)ncnc2c1 [AZD2811] + C[C@@H]1COCCN1C2=NC(=NC(=C2)C3(CC3)[S@](=N)(=O)C)C4=C5C=CNC5=NC=C4 [AZD6738] (first compound max 1 µM, 7x7, partner max 10 µM)	-0.0252	0.0156	0.0182	-0.053	-0.0323	-0.009	0.407	0.469	0.798	0.595	0.858	0.992	0.199	0.569	0.736	0.815	0.844	0.922	0.405	0.968
CCN(CCO)CCCOc1ccc2c(Nc3cc(CC(=O)Nc4cccc(F)c4)[nH]n3)ncnc2c1 [AZD2811] + O=C(c1cc(Cc2n[nH]c(=O)c3ccccc23)ccc1F)N1CCN(C(=O)C2CC2)CC1 [Olaparib] (first compound max 1 µM, 7x7, partner max 10 µM)	0.0319	0.0328	0.0377	-0.0329	-0.0217	-0.0111	0.231	0.19	0.454	0.206	0.824	0.788	0.0679	0.237	0.495	0.27	0.62	0.615	0.195	0.954
CN(CCO)CC[C@H](CSc1ccccc1)Nc1ccc(S(=O)(=O)NC(=O)c2ccc(N3CCC([C@@H](O)c4ccccc4-c4ccc(Cl)cc4)CC3)cc2)cc1S(=O)(=O)C(F)(F)F [AZD4320] + C1CN(CCC1(C(=O)N[C@@H](CCO)C2=CC=C(C=C2)Cl)N)C3=NC=NC4=C3C=CN4 [Capivasertib] (first compound max 1 µM, 7x7, partner max 3 µM)	0.0346	-0.0028	0.0003	-0.0187	-0.0696	0.0169	0.284	0.21	0.249	0.31	0.216	0.229	0.0744	0.351	0.97	0.341	0.289	0.255	0.311	0.94
CN(CCO)CC[C@H](CSc1ccccc1)Nc1ccc(S(=O)(=O)NC(=O)c2ccc(N3CCC([C@@H](O)c4ccccc4-c4ccc(Cl)cc4)CC3)cc2)cc1S(=O)(=O)C(F)(F)F [AZD4320] + C=CCn1c(=O)c2cnc(Nc3ccc(N4CCN(C)CC4)cc3)nc2n1-c1cccc(C(C)(C)O)n1 [AZD1775] (first compound max 1 µM, partner max 1 µM)	-0.0033	0.0464	-0.0597	-0.0023	-0.0172	0.0368	0.632	0.241	0.99	0.232	0.549	1	0.398	0.807	0.773	0.918	0.585	0.932	0.618	1
CN(CCO)CC[C@H](CSc1ccccc1)Nc1ccc(S(=O)(=O)NC(=O)c2ccc(N3CCC([C@@H](O)c4ccccc4-c4ccc(Cl)cc4)CC3)cc2)cc1S(=O)(=O)C(F)(F)F [AZD4320] + CCN(CCO)CCCOc1ccc2c(Nc3cc(CC(=O)Nc4cccc(F)c4)[nH]n3)ncnc2c1 [AZD2811] (first compound max 1 µM, 7x7, partner max 1 µM)	-0.0027	-0.124	0.0532	-0.0255	-0.0505	0.03	0.57	0.208	0.715	0.2	0.886	0.892	0.0993	0.327	0.245	0.679	0.692	0.512	0.46	1
CN(CCO)CC[C@H](CSc1ccccc1)Nc1ccc(S(=O)(=O)NC(=O)c2ccc(N3CCC([C@@H](O)c4ccccc4-c4ccc(Cl)cc4)CC3)cc2)cc1S(=O)(=O)C(F)(F)F [AZD4320] + CN(C)CCCOc1ccc(-c2ccc3ncc4c(c3c2)n(C2CCOCC2)c(=O)n4C)cn1 [AZD0156] (first compound max 1 µM, 7x7, partner max 1 µM)	0.0183	0.0265	-0.0333	-0.0011	-0.051	-0.0101	0.408	0.0707	0.156	0.147	0.156	0.597	0.194	0.189	0.335	0.205	0.242	0.282	0.469	0.899
CN(CCO)CC[C@H](CSc1ccccc1)Nc1ccc(S(=O)(=O)NC(=O)c2ccc(N3CCC([C@@H](O)c4ccccc4-c4ccc(Cl)cc4)CC3)cc2)cc1S(=O)(=O)C(F)(F)F [AZD4320] + C[C@@H]1COCCN1C2=NC(=NC(=C2)C3(CC3)[S@](=N)(=O)C)C4=C5C=CNC5=NC=C4 [AZD6738] (first compound max 1 µM, 7x7, partner max 10 µM)	-0.0231	0.0294	-0.0341	0.026	-0.0026	0.0198	0.804	0.514	0.972	0.637	0.937	0.982	0.269	0.687	0.782	0.918	0.502	0.932	0.785	1
CN(CCO)CC[C@H](CSc1ccccc1)Nc1ccc(S(=O)(=O)NC(=O)c2ccc(N3CCC([C@@H](O)c4ccccc4-c4ccc(Cl)cc4)CC3)cc2)cc1S(=O)(=O)C(F)(F)F [AZD4320] + C[C@@H](Nc1cc(F)cc(F)c1)c1cc(C(=O)N(C)C)cc2c(=O)cc(N3CCOCC3)oc12 [AZD8186] (first compound max 1 µM, 7x7, partner max 3 µM)	-0.0054	0.0784	0.0191	0.0421	-0.0712	0.0165	0.612	0.246	0.837	0.528	0.735	0.7	0.303	0.548	0.912	0.672	0.584	0.231	0.521	0.987
CN(CCO)CC[C@H](CSc1ccccc1)Nc1ccc(S(=O)(=O)NC(=O)c2ccc(N3CCC([C@@H](O)c4ccccc4-c4ccc(Cl)cc4)CC3)cc2)cc1S(=O)(=O)C(F)(F)F [AZD4320] + Cc1cc2ncnn2cc1Nc1ncc2c(n1)n(C1CCOCC1)c(=O)n2C [AZD7648] (first compound max 1 µM, 7x7, partner max 10 µM)	-0.0011	-0.0346	-0.0397	-0.0407	-0.0365	-0.016	0.408	0.125	0.152	0.175	0.226	0.493	0.0993	0.161	0.415	0.459	0.177	0.299	0.395	0.911
CN(CCO)CC[C@H](CSc1ccccc1)Nc1ccc(S(=O)(=O)NC(=O)c2ccc(N3CCC([C@@H](O)c4ccccc4-c4ccc(Cl)cc4)CC3)cc2)cc1S(=O)(=O)C(F)(F)F [AZD4320] + Cn1cnc2c(F)c(Nc3ccc(Br)cc3Cl)c(C(=O)NOCCO)cc21 [Selumetinib] (first compound max 1 µM, 7x7, partner max 3 µM)	-0.0201	0.103	0.0802	-0.0533	0.0306	0.0456	0.741	0.294	0.817	0.305	0.619	0.737	0.196	0.584	0.414	0.334	0.367	0.265	0.538	0.983
COc1nnc2ccc(N3CCC(c4ccc(OCCN5CCN(C)C(=O)[C@H]5C)cc4)CC3)nn12 [AZD5153] + C=CCn1c(=O)c2cnc(Nc3ccc(N4CCN(C)CC4)cc3)nc2n1-c1cccc(C(C)(C)O)n1 [AZD1775] (first compound max 1 µM, partner max 1 µM)	-0.0117	-0.0679	-0.0813	-0.0551	-0.0399	-0.0028	0.734	0.451	0.908	0.421	0.813	1	0.655	0.83	0.758	0.791	0.505	0.914	0.451	0.941
